This passage reports IC50 results from patent publication US10576062B2, “Carbamoyloxymethyl triazole cyclohexyl acids as LPA antagonists” (Bristol-Myers Squibb Company, priority 2016, dated 2020).

T1 sequence (Q92633 whole entry): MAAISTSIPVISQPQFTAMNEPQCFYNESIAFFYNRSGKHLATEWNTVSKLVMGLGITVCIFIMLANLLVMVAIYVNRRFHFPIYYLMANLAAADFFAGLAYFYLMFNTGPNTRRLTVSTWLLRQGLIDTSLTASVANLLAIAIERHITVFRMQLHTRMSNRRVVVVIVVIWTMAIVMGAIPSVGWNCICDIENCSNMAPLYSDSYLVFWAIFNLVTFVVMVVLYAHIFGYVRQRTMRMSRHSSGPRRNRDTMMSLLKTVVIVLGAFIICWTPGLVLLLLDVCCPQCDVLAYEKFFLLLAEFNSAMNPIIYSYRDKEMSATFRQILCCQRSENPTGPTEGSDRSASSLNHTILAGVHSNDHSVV

The experiment concerns the target T1, human LPA1 (Homo sapiens, UniProt Q92633).
T1 construct: expressed in transfected cells; host or cells: Chinese hamster ovary (CHO) cells
Nature of the experiment: LPA1 functional antagonist assay (LPA-induced calcium flux). It counts as cell-based. To be noted: CHO cells overexpressing human LPA1; inhibition of calcium flux induced by 10 nM LPA; read-out: hLPA1 IC50. An outline of the steps:
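CHO cells overexpressing human LPA1, loaded with calcium dye 30 min at 37° C, were preincubated 20 min at room temperature with compound (0.08 nM–5 μM, 0.5% DMSO) in HBSS/20 mM HEPES/0.1% fatty acid-free BSA.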
(Calcium flux is commonly read through the fluorescence of an indicator in the cells.)
With `Cc1nc(-c2nnn(C)c2COC(=O)N(C)CC2CC2)cnc1O[C@H]1CCC[C@H](C(=O)O)C1` [Example 220, (1S,3S)-3-((5-(5-((((cyclopropyl-methyl)(methyl)carbamoyl)oxy)methyl)-1-methyl-1H-1,2,3-triazol-4-yl)-3-methyl-pyrazin-2-yl)oxy)cyclohexane-1-carboxylic acid], the half-maximal inhibitory concentration (IC50) (commonly the point on the concentration scale where inhibition reaches its midpoint) came to 149 nM.

For the compound `Cc1nc(-c2nnn(C)c2COC(=O)N(C)CCC(C)C)cnc1O[C@H]1CCC[C@H](C(=O)O)C1` [Example 222, (1S,3S)-3-((5-(5-(((isopentyl(methyl)carbamoyl)oxy)methyl)-1-methyl-1H-1,2,3-triazol-4-yl)-3-methylpyrazin-2-yl)oxy)cyclohexane-1-carboxylic acid], the IC50 is 19 nM.

Turning to `CCCCCN(C)C(=O)OCc1c(-c2cnc(O[C@H]3CCC[C@H](C(=O)O)C3)c(C)n2)nnn1C` [Example 223, (1S,3S)-3-((3-methyl-5-(1-methyl-5-(((methyl(pentyl)carbamoyl)oxy)methyl)-1H-1,2,3-triazol-4-yl)pyrazin-2-yl)oxy)cyclohexane-1-carboxylic acid], the concentration for half-maximal inhibition (IC50) came to 56 nM.

As to `Cc1nc(-c2nnn(C)c2COC(=O)N(C)CC(C)C)cnc1O[C@H]1CCC[C@H](C(=O)O)C1` [Example 224, (1S,3S)-3-((5-(5-(((isobutyl(methyl)carbamoyl)oxy)methyl)-1-methyl-1H-1,2,3-triazol-4-yl)-3-methylpyrazin-2-yl)oxy)cyclohexane-1-carboxylic acid], the half-maximal inhibitory concentration (IC50) was 121 nM.

As to `Cc1nc(-c2nnn(C)c2COC(=O)N(C)CCC2CC2)cnc1O[C@H]1CCC[C@H](C(=O)O)C1` [Example 225, (1S,3S)-3-((5-(5-((((2-cyclopropylethyl)(methyl)carbamoyl)oxy)methyl)-1-methyl-1H-1,2,3-triazol-4-yl)-3-methylpyrazin-2-yl)oxy)cyclohexane-1-carboxylic acid], the IC50 was determined as 70 nM.

Consider `Cc1nc(-c2nnn(C)c2COC(=O)N(C)C2CCCC2)cnc1O[C@H]1CCC[C@H](C(=O)O)C1` [Example 226, (1S,3S)-3-((5-(5-(((cyclopentyl(methyl)carbamoyl)oxy)methyl)-1-methyl-1H-1,2,3-triazol-4-yl)-3-methylpyrazin-2-yl)oxy)cyclohexane-1-carboxylic acid], for which the 50% inhibitory concentration (IC50) came out at 49 nM.

On to `Cc1nc(-c2nnn(C)c2COC(=O)N(C)CC2CCCC2)cnc1O[C@H]1CCC[C@H](C(=O)O)C1` [Example 227, (1S,3S)-3-((5-(5-((((cyclopentylmethyl)(methyl)carbamoyl)oxy)methyl)-1-methyl-1H-1,2,3-triazol-4-yl)-3-methylpyrazin-2-yl)oxy)cyclohexane-1-carboxylic acid], for which the half-inhibitory concentration (IC50) amounted to 18 nM.

As for `Cc1nc(-c2nnn(C)c2COC(=O)N(C)Cc2ccccc2)cnc1O[C@H]1CCC[C@H](C(=O)O)C1` [Example 228, (1S,3S)-3-((5-(5-(((benzyl(methyl)carbamoyl)oxy)methyl)-1-methyl-1H-1,2,3-triazol-4-yl)-3-methylpyrazin-2-yl)oxy)cyclohexane-1-carboxylic acid], the IC50 was 60 nM.

Regarding `Cc1nc(-c2nnn(C)c2COC(=O)N(C)C2CCC2)cnc1O[C@H]1CCC[C@H](C(=O)O)C1` [Example 229, (1S,3S)-3-((5-(5-(((cyclobutyl(methyl)carbamoyl)oxy)methyl)-1-methyl-1H-1,2,3-triazol-4-yl)-3-methylpyrazin-2-yl)oxy)cyclohexane-1-carboxylic acid], the 50% inhibitory concentration (IC50) is 76 nM.

For the compound `Cc1nc(-c2nnn(C)c2COC(=O)N(C)CCCF)cnc1O[C@H]1CCC[C@H](C(=O)O)C1` [Example 230, (1S,3S)-3-((5-(5-((((3-fluoropropyl)(methyl)carbamoyl)oxy)methyl)-1-methyl-1H-1,2,3-triazol-4-yl)-3-methylpyrazin-2-yl)oxy)cyclohexane-1-carboxylic acid], the half-maximal inhibitory concentration (IC50) came out at 390 nM.

For the compound `Cc1nc(-c2nnn(C)c2COC(=O)N(C)CC(C)(C)C)cnc1O[C@H]1CCC[C@H](C(=O)O)C1` [Example 231, (1S,3S)-3-((3-methyl-5-(1-methyl-5-(((methyl(neopentyl)carbamoyl)oxy)methyl)-1H-1,2,3-triazol-4-yl)pyrazin-2-yl)oxy)cyclohexane-1-carboxylic acid], the IC50 worked out at 88 nM.

As for `Cc1nc(-c2nnn(C)c2COC(=O)N(C)CC(C)(C)F)cnc1O[C@H]1CCC[C@H](C(=O)O)C1` [Example 232, (1S,3S)-3-((5-(5-((((2-fluoro-2-methylpropyl)(methyl)carbamoyl)oxy)methyl)-1-methyl-1H-1,2,3-triazol-4-yl)-3-methylpyrazin-2-yl)oxy)cyclohexane-1-carboxylic acid], the IC50 was found to be 191 nM.

As to `Cc1nc(-c2nnn(C)c2COC(=O)N(C)CC2(F)CCC2)cnc1O[C@H]1CCC[C@H](C(=O)O)C1` [Example 233, (1S,3S)-3-((5-(5-(((((1-fluoro-cyclobutyl)methyl)(methyl)carbamoyl)oxy)methyl)-1-methyl-1H-1,2,3-triazol-4-yl)-3-methylpyrazin-2-yl)oxy)cyclohexane-1-carboxylic acid], the IC50 was found to be 122 nM.

For the compound `Cc1nc(-c2nnn(C)c2COC(=O)N(C)CC2(F)CCCC2)cnc1O[C@H]1CCC[C@H](C(=O)O)C1` [Example 234, (1S,3S)-3-((5-(5-(((((1-fluorocyclopentyl)methyl)(methyl)carbamoyl)oxy)methyl)-1-methyl-1H-1,2,3-triazol-4-yl)-3-methylpyrazin-2-yl)oxy)cyclohexane-1-carboxylic acid], the IC50 stood at 72 nM.

Turning to `Cc1nc(-c2nnn(C)c2COC(=O)N(C)C[C@@H]2C[C@H]2C)cnc1O[C@H]1CCC[C@H](C(=O)O)C1` [Example 235, (1S,3S)-3-((3-methyl-5-(1-methyl-5-(((methyl(((1R,2R)-2-methylcyclopropyl)methyl)carbamoyl)oxy)methyl)-1H-1,2,3-triazol-4-yl)pyrazin-2-yl)oxy)cyclohexane-1-carboxylic acid], the IC50 was found to be 70 nM.

For `Cc1nc(-c2nnn(C)c2COC(=O)N(C)C[C@H]2C[C@@H]2C)cnc1O[C@H]1CCC[C@H](C(=O)O)C1` [Example 236, (1S,3S)-3-((3-methyl-5-(1-methyl-5-(((methyl(((1S,2S)-2-methylcyclopropyl)methyl)carbamoyl)oxy)methyl)-1H-1,2,3-triazol-4-yl)pyrazin-2-yl)oxy)cyclohexane-1-carboxylic acid], the IC50 was determined as 46 nM.

On to `CN(CC1CC1)C(=O)OCc1c(-c2cnc(O[C@H]3CCC[C@H](C(=O)O)C3)c(C(F)(F)F)c2)nnn1C` [Example 237, (1S,3S)-3-((5-(5-((((cyclopropylmethyl)(methyl)carbamoyl)oxy)methyl)-1-methyl-1H-1,2,3-triazol-4-yl)-3-(trifluoromethyl)pyridin-2-yl)oxy)cyclohexane-1-carboxylic acid], for which the half-inhibitory concentration (IC50) came to 2400 nM.

`CN(C(=O)OCc1c(-c2cnc(O[C@H]3CCC[C@H](C(=O)O)C3)c(C(F)(F)F)c2)nnn1C)C1CCCC1` [Example 238, (1S,3S)-3-((5-(5-(((cyclopentyl(methyl)carbamoyl)oxy)methyl)-1-methyl-1H-1,2,3-triazol-4-yl)-3-(trifluoromethyl)pyridin-2-yl)oxy)cyclohexane-1-carboxylic acid]: the half-inhibitory concentration (IC50) was determined as 174 nM.

On to `CN(CC1CCC1)C(=O)OCc1c(-c2cnc(O[C@H]3CCC[C@H](C(=O)O)C3)c(C(F)(F)F)c2)nnn1C` [Example 239, (1S,3S)-3-((5-(5-((((cyclobutylmethyl)(methyl)carbamoyl)oxy)methyl)-1-methyl-1H-1,2,3-triazol-4-yl)-3-(trifluoromethyl)pyridin-2-yl)oxy)cyclohexane-1-carboxylic acid], for which the IC50 came out at 440 nM.

As to `CN(C(=O)OCc1c(-c2cnc(O[C@H]3CCC[C@H](C(=O)O)C3)c(C(F)(F)F)c2)nnn1C)C1CCC1` [Example 240, (1S,3S)-3-((5-(5-(((cyclobutyl(methyl)carbamoyl)oxy)methyl)-1-methyl-1H-1,2,3-triazol-4-yl)-3-(trifluoromethyl)pyridin-2-yl)oxy)cyclohexane-1-carboxylic acid], the IC50 turned out to be 1210 nM.

With `Cc1nc(-c2nnn(C)c2CCOC(=O)N(C)CC2CCC2)ccc1O[C@H]1CCC[C@H](C(=O)O)C1` [Example 241, (1S,3S)-3-((6-(5-(2-(((Cyclobutylmethyl)(methyl)carbamoyl)oxy)ethyl)-1-methyl-1H-1,2,3-triazol-4-yl)-2-methylpyridin-3-yl)oxy)cyclohexane-1-carboxylic Acid], the IC50 turned out to be 41 nM.

For the compound `CCCN(C)C(=O)OCCc1c(-c2ccc(O[C@H]3CCC[C@H](C(=O)O)C3)c(C)n2)nnn1C` [Example 242, (1S,3S)-3-((2-Methyl-6-(1-methyl-5-(2-((methyl(propyl)carbamoyl)oxy)-ethyl)-1H-1,2,3-triazol-4-yl)pyridin-3-yl)oxy)cyclohexane-1-carboxylic acid], the half-inhibitory concentration (IC50) was 319 nM.

With `Cc1nc(-c2nnn(C)c2CCOC(=O)N(C)C2CCCC2)ccc1O[C@H]1CCC[C@H](C(=O)O)C1` [Example 243, (1S,3S)-3-((6-(5-(2-((Cyclopentyl-(methyl)carbamoyl)oxy)ethyl)-1-methyl-1H-1,2,3-triazol-4-yl)-2-methylpyridin-3-yl)oxy)cyclohexane-1-carboxylic acid], the 50% inhibitory concentration (IC50) stood at 72 nM.

As to `Cc1nc(-c2nnn(C)c2CCOC(=O)N(C)Cc2ccccc2)ccc1O[C@H]1CCC[C@H](C(=O)O)C1` [Example 244, (1S,3S)-3-((6-(5-(2-((Benzyl(methyl)-carbamoyl)oxy)ethyl)-1-methyl-1H-1,2,3-triazol-4-yl)-2-methylpyridin-3-yl)oxy)cyclohexane-1-carboxylic acid], the 50% inhibitory concentration (IC50) was 54 nM.

In the case of `Cc1nc(-c2nnn(C)c2CCOC(=O)N(C)CC(C)C)ccc1O[C@H]1CCC[C@H](C(=O)O)C1` [Example 245, (1S,3S)-3-((6-(5-(2-((Isobutyl-(methyl)carbamoyl)oxy)ethyl)-1-methyl-1H-1,2,3-triazol-4-yl)-2-methylpyridin-3-yl)oxy)cyclohexane-1-carboxylic acid], the IC50 was determined as 69 nM.
